ChEMBL document CHEMBL4052645, “Discovery of potent and efficacious pyrrolopyridazines as dual JAK1/3 inhibitors” (Bioorg Med Chem Lett, 2017)

What was measured:
[1] = molecular target: Vascular endothelial growth factor receptor 1 (Homo sapiens) (UniProt P17948); assay: Inhibition of wild-type human partial length FLT1 (R781 to F1239 residues) expressed in bacterial expression system assessed as residual activity at 50 nM by Kinomescan method relative to control
[2] = molecular target: MAP kinase-interacting serine/threonine-protein kinase 2 (Homo sapiens) (UniProt Q9HBH9); assay: Inhibition of wild-type human partial length MNK2 (G63 to S388 residues) expressed in mammalian expression system assessed as residual activity at 50 nM by Kinomescan method relative to control
Sequence of MAP kinase-interacting serine/threonine-protein kinase 2 (Homo sapiens) (Q9HBH9 whole entry, looked up, the tested form may be a part): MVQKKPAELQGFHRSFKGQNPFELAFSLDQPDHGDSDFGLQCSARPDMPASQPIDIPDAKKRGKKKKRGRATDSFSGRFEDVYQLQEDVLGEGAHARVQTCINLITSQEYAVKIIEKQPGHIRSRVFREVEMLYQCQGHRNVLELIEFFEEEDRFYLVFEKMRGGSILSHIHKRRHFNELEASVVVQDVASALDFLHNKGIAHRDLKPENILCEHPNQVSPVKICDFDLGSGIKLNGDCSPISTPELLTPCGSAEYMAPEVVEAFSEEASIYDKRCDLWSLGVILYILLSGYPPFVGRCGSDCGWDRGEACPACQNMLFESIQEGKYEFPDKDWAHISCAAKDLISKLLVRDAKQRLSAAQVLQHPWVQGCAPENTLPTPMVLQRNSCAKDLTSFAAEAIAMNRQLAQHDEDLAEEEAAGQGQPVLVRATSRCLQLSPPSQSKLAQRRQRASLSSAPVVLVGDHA

[3] = molecular target: Cyclin-dependent kinase 9 (Homo sapiens) (UniProt P50750); assay: Inhibition of wild-type human full length CDK9 (M1 to F372 residues) expressed in bacterial expression system assessed as residual activity at 50 nM by Kinomescan method relative to control
[4] = molecular target: Myosin light chain kinase 2, skeletal/cardiac muscle (Homo sapiens) (UniProt Q9H1R3); assay: Inhibition of wild-type human partial length SKMLCK (D258 to K570 residues) expressed in bacterial expression system assessed as residual activity at 50 nM by Kinomescan method relative to control
[5] = molecular target: Mitogen-activated protein kinase 7 (Homo sapiens) (UniProt Q13164); assay: Inhibition of wild-type human partial length ERK5 (M1 to A409 residues) expressed in bacterial expression system assessed as residual activity at 50 nM by Kinomescan method relative to control
Sequence of Mitogen-activated protein kinase 7 (Homo sapiens) (Q13164 2-816 limits assumed): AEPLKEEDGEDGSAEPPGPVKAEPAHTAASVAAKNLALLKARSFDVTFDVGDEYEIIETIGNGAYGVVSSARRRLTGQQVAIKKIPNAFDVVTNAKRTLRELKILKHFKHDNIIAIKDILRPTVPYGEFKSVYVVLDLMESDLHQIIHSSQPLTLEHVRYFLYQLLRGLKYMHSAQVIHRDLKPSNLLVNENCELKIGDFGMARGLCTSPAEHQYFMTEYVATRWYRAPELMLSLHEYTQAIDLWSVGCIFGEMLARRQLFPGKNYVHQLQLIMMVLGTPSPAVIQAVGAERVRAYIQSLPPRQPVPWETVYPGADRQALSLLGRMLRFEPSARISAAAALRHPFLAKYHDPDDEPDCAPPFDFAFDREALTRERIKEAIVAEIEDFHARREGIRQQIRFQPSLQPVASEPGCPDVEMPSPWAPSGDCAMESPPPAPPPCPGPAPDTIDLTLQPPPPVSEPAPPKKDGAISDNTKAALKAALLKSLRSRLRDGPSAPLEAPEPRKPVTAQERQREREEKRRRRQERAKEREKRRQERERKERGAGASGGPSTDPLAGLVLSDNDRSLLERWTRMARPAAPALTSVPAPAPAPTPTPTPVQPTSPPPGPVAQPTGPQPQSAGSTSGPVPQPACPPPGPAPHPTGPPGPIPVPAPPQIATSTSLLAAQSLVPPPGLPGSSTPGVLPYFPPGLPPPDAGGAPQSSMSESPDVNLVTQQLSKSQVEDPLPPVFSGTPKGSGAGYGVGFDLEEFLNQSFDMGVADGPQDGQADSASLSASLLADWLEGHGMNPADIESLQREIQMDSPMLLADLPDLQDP

[6] = molecular target: Peripheral plasma membrane protein CASK (Homo sapiens) (UniProt O14936); assay: Inhibition of wild-type human partial length CASK (M1 to H315 residues) expressed in mammalian expression system assessed as residual activity at 50 nM by Kinomescan method relative to control
Sequence of Peripheral plasma membrane protein CASK (Homo sapiens) (O14936 whole entry, the tested form may be a part): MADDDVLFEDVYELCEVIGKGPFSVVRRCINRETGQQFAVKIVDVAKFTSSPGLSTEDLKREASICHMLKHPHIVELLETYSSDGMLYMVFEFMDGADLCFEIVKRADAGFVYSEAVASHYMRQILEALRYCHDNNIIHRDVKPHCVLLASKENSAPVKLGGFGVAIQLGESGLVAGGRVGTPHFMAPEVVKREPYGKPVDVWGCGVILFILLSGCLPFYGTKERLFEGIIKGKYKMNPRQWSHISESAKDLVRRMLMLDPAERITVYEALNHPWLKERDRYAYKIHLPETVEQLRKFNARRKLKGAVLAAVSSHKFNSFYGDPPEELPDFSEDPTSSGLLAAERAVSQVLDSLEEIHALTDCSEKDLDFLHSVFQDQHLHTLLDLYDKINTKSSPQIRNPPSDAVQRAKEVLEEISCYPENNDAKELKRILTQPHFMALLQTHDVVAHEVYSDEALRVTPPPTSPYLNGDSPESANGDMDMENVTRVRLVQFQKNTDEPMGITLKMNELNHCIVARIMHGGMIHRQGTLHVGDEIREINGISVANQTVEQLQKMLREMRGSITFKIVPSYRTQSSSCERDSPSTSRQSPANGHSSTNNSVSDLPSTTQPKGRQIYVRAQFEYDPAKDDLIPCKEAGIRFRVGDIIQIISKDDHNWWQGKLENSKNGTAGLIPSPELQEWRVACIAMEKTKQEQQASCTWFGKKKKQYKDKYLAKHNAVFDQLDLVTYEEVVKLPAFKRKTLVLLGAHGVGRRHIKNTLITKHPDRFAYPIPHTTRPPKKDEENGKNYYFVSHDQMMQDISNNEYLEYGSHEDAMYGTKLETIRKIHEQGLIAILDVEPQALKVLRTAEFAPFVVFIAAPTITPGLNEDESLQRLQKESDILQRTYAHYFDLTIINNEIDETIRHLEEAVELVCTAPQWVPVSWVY

[7] = molecular target: Serine/threonine-protein kinase PAK 3 (Homo sapiens) (UniProt O75914); assay: Inhibition of wild-type human full length PAK3 (M1 to R544 residues) expressed in bacterial expression system assessed as residual activity at 50 nM by Kinomescan method relative to control
[8] = molecular target: Tyrosine-protein kinase Lck (Homo sapiens) (UniProt P06239); assay: Inhibition of wild-type human partial length LCK (R207 to P509 residues) expressed in bacterial expression system assessed as residual activity at 50 nM by Kinomescan method relative to control
[9] = molecular target: cGMP-dependent protein kinase 2 (Homo sapiens) (UniProt Q13237); assay: Inhibition of wild-type human partial length PKG2 (S422 to F762 residues) expressed in mammalian expression system assessed as residual activity at 50 nM by Kinomescan method relative to control
[10] = molecular target: Serine/threonine-protein kinase D2 (Homo sapiens) (UniProt Q9BZL6); assay: Inhibition of wild-type human partial length PKD2 (A519 to E838 residues) expressed in bacterial expression system assessed as residual activity at 50 nM by Kinomescan method relative to control
[11] = molecular target: 5'-AMP-activated protein kinase catalytic subunit alpha-2 (Homo sapiens) (UniProt P54646); assay: Inhibition of wild-type human partial length AMPK alpha2 (M1 to E306 residues) expressed in bacterial expression system assessed as residual activity at 50 nM by Kinomescan method relative to control
[12] = molecular target: Tyrosine-protein kinase ITK/TSK (Homo sapiens) (UniProt Q08881); assay: Inhibition of wild-type human partial length ITK (R335 to L620 residues) expressed in bacterial expression system assessed as residual activity at 50 nM by Kinomescan method relative to control
[13] = molecular target: CDK4/Cyclin D3 (Homo sapiens) (UniProt P11802+P30281); assay: Inhibition of wild-type human full length CDK4/cyclinD3 (M1 to E303 residues) expressed in mammalian expression system assessed as residual activity at 50 nM by Kinomescan method relative to control
[14] = molecular target: Protein-tyrosine kinase 2-beta (Homo sapiens) (UniProt Q14289); assay: Inhibition of wild-type human full length PYK2 (M1 to E967 residues) expressed in bacterial expression system assessed as residual activity at 50 nM by Kinomescan method relative to control
[15] = molecular target: Myosin light chain kinase (Homo sapiens) (UniProt Q32MK0); assay: Inhibition of wild-type human partial length CAMLCK (D488 to K800 residues) expressed in bacterial expression system assessed as residual activity at 50 nM by Kinomescan method relative to control
[16] = molecular target: Death-associated protein kinase 1 (Homo sapiens) (UniProt P53355); assay: Inhibition of wild-type human partial length DAPK1 (M1 to F296 residues) expressed in bacterial expression system assessed as residual activity at 50 nM by Kinomescan method relative to control
Sequence of Death-associated protein kinase 1 (Homo sapiens) (P53355 whole entry, looked up, the tested form may be a part): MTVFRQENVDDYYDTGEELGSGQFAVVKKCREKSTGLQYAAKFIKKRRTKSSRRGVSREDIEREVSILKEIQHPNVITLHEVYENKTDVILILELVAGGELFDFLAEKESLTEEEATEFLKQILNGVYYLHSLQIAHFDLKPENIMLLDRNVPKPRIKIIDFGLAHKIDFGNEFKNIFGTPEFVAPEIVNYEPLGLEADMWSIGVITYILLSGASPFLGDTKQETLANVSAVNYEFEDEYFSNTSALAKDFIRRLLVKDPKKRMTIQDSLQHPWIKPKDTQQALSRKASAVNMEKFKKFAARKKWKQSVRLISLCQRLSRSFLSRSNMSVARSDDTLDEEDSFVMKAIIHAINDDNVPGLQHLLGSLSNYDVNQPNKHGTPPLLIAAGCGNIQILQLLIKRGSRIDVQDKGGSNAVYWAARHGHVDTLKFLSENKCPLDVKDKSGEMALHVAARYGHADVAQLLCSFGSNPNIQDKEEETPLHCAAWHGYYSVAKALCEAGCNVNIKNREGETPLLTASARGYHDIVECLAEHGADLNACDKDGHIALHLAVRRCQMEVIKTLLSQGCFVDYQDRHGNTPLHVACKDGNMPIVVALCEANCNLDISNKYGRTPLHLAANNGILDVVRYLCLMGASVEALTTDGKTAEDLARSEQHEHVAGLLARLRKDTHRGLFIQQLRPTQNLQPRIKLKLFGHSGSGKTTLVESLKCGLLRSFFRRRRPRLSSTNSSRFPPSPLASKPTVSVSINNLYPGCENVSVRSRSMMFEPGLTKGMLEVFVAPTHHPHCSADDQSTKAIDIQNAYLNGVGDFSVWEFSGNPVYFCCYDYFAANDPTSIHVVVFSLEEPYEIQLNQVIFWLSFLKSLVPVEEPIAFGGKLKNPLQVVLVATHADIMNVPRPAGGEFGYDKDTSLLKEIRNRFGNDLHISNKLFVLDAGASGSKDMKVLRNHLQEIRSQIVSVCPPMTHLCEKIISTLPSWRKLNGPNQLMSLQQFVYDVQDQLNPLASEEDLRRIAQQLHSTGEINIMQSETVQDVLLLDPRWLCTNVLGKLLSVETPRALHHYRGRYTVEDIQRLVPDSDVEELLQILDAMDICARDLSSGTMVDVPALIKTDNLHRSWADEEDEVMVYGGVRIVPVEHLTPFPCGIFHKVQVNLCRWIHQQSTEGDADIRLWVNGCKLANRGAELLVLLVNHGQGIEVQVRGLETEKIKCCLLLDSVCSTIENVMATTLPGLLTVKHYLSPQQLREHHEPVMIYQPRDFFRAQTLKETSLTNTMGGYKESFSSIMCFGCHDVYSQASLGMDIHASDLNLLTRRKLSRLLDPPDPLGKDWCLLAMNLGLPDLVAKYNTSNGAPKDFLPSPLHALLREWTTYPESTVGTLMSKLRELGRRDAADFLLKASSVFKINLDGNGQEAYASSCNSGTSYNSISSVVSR

[17] = molecular target: Membrane-associated tyrosine- and threonine-specific cdc2-inhibitory kinase (Homo sapiens) (UniProt Q99640); assay: Inhibition of wild-type human partial length MYT1 (A88 to G366 residues) expressed in bacterial expression system assessed as residual activity at 50 nM by Kinomescan method relative to control
[18] = molecular target: Phosphatidylinositol 4,5-bisphosphate 3-kinase catalytic subunit gamma isoform (Homo sapiens) (UniProt P48736); assay: Inhibition of wild-type human partial length PI3KCG (S144 to A1102 residues) expressed in mammalian expression system assessed as residual activity at 50 nM by Kinomescan method relative to control
[19] = molecular target: RAF proto-oncogene serine/threonine-protein kinase (Homo sapiens) (UniProt P04049); assay: Inhibition of wild-type human partial length RAF1 (I330 to T640 residues) expressed in bacterial expression system assessed as residual activity at 50 nM by Kinomescan method relative to control
[20] = molecular target: Phosphatidylinositol 5-phosphate 4-kinase type-2 beta (Homo sapiens) (UniProt P78356); assay: Inhibition of wild-type human full length PIP5K2B (M1 to T416 residues) expressed in bacterial expression system assessed as residual activity at 50 nM by Kinomescan method relative to control
[21] = molecular target: 5'-AMP-activated protein kinase catalytic subunit alpha-1 (Homo sapiens) (UniProt Q13131); assay: Inhibition of wild-type human partial length AMPK alpha1 (M1 to E306 residues) expressed in bacterial expression system assessed as residual activity at 50 nM by Kinomescan method relative to control
[22] = molecular target: Ribosomal protein S6 kinase alpha-5 (Homo sapiens) (UniProt O75582); assay: Inhibition of wild-type human partial length N-terminal MSK1 kinase domain 1 expressed in bacterial expression system assessed as residual activity at 50 nM by Kinomescan method relative to control
[23] = molecular target: Mitogen-activated protein kinase 11 (Homo sapiens) (UniProt Q15759); assay: Inhibition of wild-type human full length p38-beta (M1 to Q364 residues) expressed in bacterial expression system assessed as residual activity at 50 nM by Kinomescan method relative to control
[24] = molecular target: Calcium/calmodulin-dependent protein kinase type II subunit alpha (Homo sapiens) (UniProt Q9UQM7); assay: Inhibition of wild-type human partial length CAMK2A (M1 to K328 residues) expressed in bacterial expression system assessed as residual activity at 50 nM by Kinomescan method relative to control
[25] = molecular target: Protein kinase C eta type (Homo sapiens) (UniProt P24723); assay: Inhibition of wild-type human partial length PKCH (S324 to P683 residues) expressed in bacterial expression system assessed as residual activity at 50 nM by Kinomescan method relative to control

Sequence of Vascular endothelial growth factor receptor 1 (Homo sapiens) (P17948 whole entry, the tested form may be a part): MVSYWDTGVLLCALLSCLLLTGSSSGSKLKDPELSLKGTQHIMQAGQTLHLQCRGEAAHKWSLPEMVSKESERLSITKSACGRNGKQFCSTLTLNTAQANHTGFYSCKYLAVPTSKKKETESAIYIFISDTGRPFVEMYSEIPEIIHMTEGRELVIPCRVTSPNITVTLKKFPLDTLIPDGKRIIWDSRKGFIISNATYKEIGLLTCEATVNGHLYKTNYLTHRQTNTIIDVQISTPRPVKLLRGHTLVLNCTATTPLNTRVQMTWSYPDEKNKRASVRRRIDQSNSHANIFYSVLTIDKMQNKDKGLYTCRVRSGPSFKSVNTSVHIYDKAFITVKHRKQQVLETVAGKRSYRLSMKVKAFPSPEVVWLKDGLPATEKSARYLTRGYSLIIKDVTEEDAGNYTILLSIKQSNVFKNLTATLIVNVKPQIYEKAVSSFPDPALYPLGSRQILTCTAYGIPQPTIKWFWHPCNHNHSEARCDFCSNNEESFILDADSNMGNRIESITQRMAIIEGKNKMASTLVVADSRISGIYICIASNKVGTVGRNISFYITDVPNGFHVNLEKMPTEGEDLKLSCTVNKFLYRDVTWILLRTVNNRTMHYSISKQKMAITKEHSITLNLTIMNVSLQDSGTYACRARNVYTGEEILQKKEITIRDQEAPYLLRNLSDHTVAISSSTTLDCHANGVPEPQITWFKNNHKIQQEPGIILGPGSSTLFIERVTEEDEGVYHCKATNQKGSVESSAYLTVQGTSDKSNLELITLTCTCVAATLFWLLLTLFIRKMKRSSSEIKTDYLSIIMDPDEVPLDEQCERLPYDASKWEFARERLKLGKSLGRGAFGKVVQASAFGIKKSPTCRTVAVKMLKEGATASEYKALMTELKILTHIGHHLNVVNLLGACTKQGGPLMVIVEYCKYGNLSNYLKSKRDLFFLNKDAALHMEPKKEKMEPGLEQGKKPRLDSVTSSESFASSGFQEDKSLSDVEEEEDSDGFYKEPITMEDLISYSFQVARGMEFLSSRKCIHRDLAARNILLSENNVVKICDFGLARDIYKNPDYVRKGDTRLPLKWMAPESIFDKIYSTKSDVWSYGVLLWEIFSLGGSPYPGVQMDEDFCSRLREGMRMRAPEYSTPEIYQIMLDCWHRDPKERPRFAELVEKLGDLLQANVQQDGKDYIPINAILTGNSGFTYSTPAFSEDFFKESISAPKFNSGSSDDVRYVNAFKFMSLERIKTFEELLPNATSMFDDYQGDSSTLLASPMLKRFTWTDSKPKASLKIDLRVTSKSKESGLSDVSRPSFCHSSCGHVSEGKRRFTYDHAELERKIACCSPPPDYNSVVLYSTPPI

Compound | Activity [1] | Activity [2] | Activity [3] | Activity [4] | Activity [5] | Activity [6] | Activity [7] | Activity [8] | Activity [9] | Activity [10] | Activity [11] | Activity [12] | Activity [13] | Activity [14] | Activity [15] | Activity [16] | Activity [17] | Activity [18] | Activity [19] | Activity [20] | further results
COc1ccc(-c2cc3c(N[C@@H]4CC[C@](C)(N)C4(C)C)c(C(N)=O)cnn3c2)cn1 | 90% | 95% | 100% | 100% | 100% | 95% | 64% | 100% | 100% | 100% | 74% | 90% | 80% | 93% | 100% | 96% | 100% | 100% | 100% | 72% | Activity [21]: 62%; Activity [22]: 100%; Activity [23]: 80%; Activity [24]: 100%; Activity [25]: 70%
CC1(C)[C@H](Nc2c(C(N)=O)cnn3cc(-c4ccccc4)cc23)CC[C@]1(C)N | 100% | 100% | 93% | 90% | 96% | 98% | 53% | 87% | 87% | 100% | 38% | 89% | 100% | 100% | 100% | 63% | 79% | 100% | 100% | 47% | Activity [21]: 37%; Activity [22]: 100%; Activity [23]: 78%; Activity [24]: 88%; Activity [25]: 49%
